Some results are limits rather than exact numbers.

The subject of the assay is Mus musculus. The assay is described as follows: Antitetrabenazine activity in ip dosed CD1 mouse assessed as inhibition of tetrabenazine-induced ptosis challenged with tetrabenazine after 30 mins later and after another 30 mins of drug treatment. In kind it is functional. As to conditions: 0.5 h.
Consider `CC(C)NN1CCC2(CC1)OC(c1ccccc1)c1ccccc12` (stereo unspecified), for which the ED50 was more than 25 mg/kg.
The value for `CN(C)CCCN1c2ccccc2CCc2ccccc21` [IMIPRAMINE] was 1.3 mg/kg.
The value for `ON1CCC2(CC1)OC(c1ccccc1)c1ccccc12` (stereo unspecified) was 1.4 mg/kg.
In the case of `ON1CCC2(CC1)OC(c1ccc(F)cc1)c1ccccc12` (stereo unspecified) it was 4 mg/kg.
`c1ccc(C2OC3(CCNCC3)c3ccccc32)cc1` (stereo unspecified): the ED50 is 0.5 mg/kg.
In the case of `COc1ccc2c(c1)C1(CCN(O)CC1)OC2c1ccccc1` (stereo unspecified), the ED50 was 4.7 mg/kg.
In the case of `COc1ccc(C2OC3(CCN(O)CC3)c3ccccc32)cc1` (stereo unspecified) it was 3.5 mg/kg; in that of `O=C(ON1CCC2(CC1)OC(c1ccccc1)c1ccccc12)c1ccccc1` (stereo unspecified), more than 25 mg/kg; in that of `CNCCCN1c2ccccc2CCc2ccccc21` [DESIPRAMINE], 0.8 mg/kg.
The value for `O=NN1CCC2(CC1)OC(c1ccccc1)c1ccccc12` (stereo unspecified) was more than 25 mg/kg; that for `NN1CCC2(CC1)OC(c1ccccc1)c1ccccc12` (stereo unspecified) was 6.8 mg/kg.

The values above are taken from ChEMBL document CHEMBL3243944, “Synthesis of spiro[isobenzofuran-1(3H),4'-piperidines] as potential central nervous system agents. 2. Compounds containing a heteroatom attached to nitrogen” (1977).
